# Measurements published in patent publication US12479816B2, “20-HETE formation inhibitors” (UNIVERSITY OF PITTSBURGH—OF THE COMMONWEALTH SYSTEM OF …, priority 2019, dated 2025).
# Where two headings read alike, the source gives them in different places.
# Key:
# [1] = HLM stability determination; assay type: in vitro ADME, human; details: HLM 500 μg/ml, 1 μM compound, NADPH, relative to 0 min
# Description: HLM stability determinations shown in Table 3 were obtained as follows. Microsomal incubates contained HLM (500 μg/ml), test compounds (1 μM) and NADPH (1.3 mM) in a 1 ml total volume of microsomal incubation buffer (0.12 M potassium phosphate buffer containing 5 mM magnesium chloride). Reaction was started by adding NADPH to the incubates and was carried out at 37° C. in a shaking water bath for 60 min. At 0, 15, 30, 45, 60 min, a 50 μl aliquot of incubates was taken out and reaction was stopped by adding aliquot into 200 μl ice-cold acetonitrile. After centrifugation at 14000×g for 5 min, 200 μl supernatant was taken out for UPLC-MS/MS analysis as described above. Values at 0 min were used as corresponding control for test compounds. Varapamil, metoprolol, and warfarin, categorized as fast, moderate and slow metabolism, were used as positive control. Incubates without NADPH group served as negative control.
# [2] = test system: 20-HETE formation (CYP4) in RLM; experiment: Inhibition of 20-HETE formation at 250 or 500 nM in RLM microsomal incubations; assay type: biochemical, rat; details: 500 nM compound; RLM 300 μg/ml
# How it was run: (§1)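 Protein 300 μg/ml (microsomes) / 25 pmol/mL (rCYP4F2); AA 100 μM; NADPH 1 mM start; KPi 0.12 M + 5 mM MgCl2; 20 min, 37° C. Read-out: 20-HETE by UPLC-MS/MS (d6 IS), % of vehicle, n=3.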
# [3] = test system: 20-HETE formation (CYP4) in HLM; experiment: Inhibition of 20-HETE formation at 250 or 500 nM in HLM microsomal incubations; assay type: biochemical, human; details: 500 nM compound; HLM 300 μg/ml, AA 100 μM, 20 min
# How it was run: as §1
# rCYP4F2 = target: T1, rCYP4F2 (Homo sapiens, UniProt P78329); experiment: Inhibition of 20-HETE formation at 250 or 500 nM in rCYP4F2 incubations; assay type: biochemical; details: 500 nM compound; rCYP4F2 25 pmol/mL; read-out: rCYP4F2 % inh. @ 500 nM
# T1 sequence (P78329 5-520): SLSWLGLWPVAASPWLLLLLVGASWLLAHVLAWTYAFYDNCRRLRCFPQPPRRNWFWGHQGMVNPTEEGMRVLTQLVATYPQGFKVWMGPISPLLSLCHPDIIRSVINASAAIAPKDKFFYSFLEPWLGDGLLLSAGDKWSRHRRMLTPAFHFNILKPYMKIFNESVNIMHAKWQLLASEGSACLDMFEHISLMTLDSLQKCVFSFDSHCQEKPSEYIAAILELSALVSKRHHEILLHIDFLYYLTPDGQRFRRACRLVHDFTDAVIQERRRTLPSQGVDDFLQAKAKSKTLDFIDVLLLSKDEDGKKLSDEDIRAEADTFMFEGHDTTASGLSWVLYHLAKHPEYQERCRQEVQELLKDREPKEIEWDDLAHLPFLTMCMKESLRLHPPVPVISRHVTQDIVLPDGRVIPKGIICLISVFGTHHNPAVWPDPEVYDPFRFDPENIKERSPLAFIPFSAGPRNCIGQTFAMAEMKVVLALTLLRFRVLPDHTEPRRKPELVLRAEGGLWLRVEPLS
# How it was run: as §1
# [4] = test system: 20-HETE formation (CYP4) in HLM; experiment: IC50 determination, 20-HETE formation in HLM; assay type: biochemical, human; details: HLM 300 μg/ml, AA 100 μM, 12 concentrations
# Description: Microsomal incubations contained HLM, RLM (300 μg/ml), AA (100 μM), NADPH (1 mM) and test compounds at 12 concentrations (0.1 nM-50 μM) in a 1 ml total volume in microsomal incubation buffer (0.12 M potassium phosphate buffer containing 5 mM magnesium chloride). Reaction was started by adding NADPH to the incubates and was carried out at 37° C. in a shaking water bath for 20 min. Reaction was stopped by placing tubes on ice, followed by adding 12.5 μl 20-HETE-d6 as internal standard to each sample. Microsomal incubations were extracted with 3 ml ethyl ether twice, dried down under nitrogen gas and reconstituted in 125 μl 80:20 methanol:deionized H2O for analysis. 20-HETE formation was quantified using the validated UPLC-MS/MS assay described above and normalized by vehicle group. HET0016 (250 nM) was used as positive control. Incubates without NADPH group served as the negative control. IC50 was determined by fitting the dose-response curve using Graphpad Prism nonlinear regression.
# [5] = Turbidometric solubility determination; assay type: physicochemical; details: PBS with 1% DMSO, aqueous buffer, kinetic from dmso stock, room temperature
# How it was run: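 Precipitation was detected as a significant rise in absorbance at 620 nm over background, and this point set the maximum solubility. Compound was tested in PBS with 1% DMSO at final concentrations from 0 to 600 μM, in triplicate, after 2 h of shaking at room temperature.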
# MDR1 (P-gp) = experiment: BBB penetration potential, MDR1-MDCK permeability; assay type: in vitro ADME; details: dog; for Papp A→B at 120 min, 5 μM: apical to basolateral, pH 7.4, read-out: BBB penetration potential MDCK A-B 10−6 cm/s; for Papp B→A at 120 min, 5 μM: basolateral to apical, pH 7.4, read-out: BBB penetration potential MDCK B-A 10−6 cm/s
# Description: BBB penetration potential assessment data in Table 1 was obtained as follows. MDR1-MDCK cell monolayers were grown to confluence on collagen-coated, microporous membranes in 12-well assay plates. Atenolol, propranolol and digoxin were used as control to assess plate quality. The permeability assay buffer was Hanks' balanced salt solution containing 10 mM HEPES and 15 mM glucose at a pH of 7.4. The buffer in the receiver chamber also contained 1% bovine serum albumin. The dosing solution concentration was 5 μM of test article in the assay buffer. Cell monolayers were dosed on the apical side (A-to-B) or basolateral side (B-to-A) and incubated at 37° C. with 5% CO2 in a humidified incubator. Samples were taken from the donor and receiver chambers at 120 minutes. Each determination was performed in duplicate the flux of lucifer yellow was also measured post-experimentally for each monolayer to ensure no damage was inflicted to the cell monolayers during the flux period. All samples were assayed by LC-MS/MS using electrospray ionization using a PE SCIEX API 4000 spectrometer and total run time of 1 min. Analytical method/conditions were: Liquid Chromatography Column: Waters ACQUITY UPLC BEH Phenyl 30×2.1 mm, 1.7 m; M.P. Buffer: 25 mM ammonium formate buffer, pH 3.5; Aqueous Reservoir (A): 90% water, 10% buffer; Organic Reservoir (B): 90% acetonitrile, 10% buffer; Flow Rate: 0.7 mL/minute; gradient program: 99% A (t=0 min), 1% A (t=0.65 min), 1% A (t=0.75 min), 99% A (t=0.8 min), 99% A (t=1 min); 5 μL injection volume
# The apparent permeability (Papp) and percent recovery were calculated as follows: Papp=(dCr/dt)×Vr/(A×CA) (1) Percent Recovery=100×((Vr×Cr^final)+(Vd×Cd^final))/(Vd×CN) (2)
# wherein: • dCr/dt is the slope of the cumulative concentration in the receiver compartment versus time in μMs^−1; • Vr is the volume of the receiver compartment in cm^3; • Vd is the volume of the donor compartment in cm^3; • A is the area of the insert (1.13 cm^2 for 12-well); • CA is the average of the nominal dosing concentration and the measured 120 minute donor concentration in μM; • CN is the nominal concentration of the dosing solution in μM; • Cr^final is the cumulative receiver concentration in μM at the end of the incubation period; • Cd^final is the concentration of the donor in μM at the end of the incubation period. Efflux ratio (ER) is defined as Papp (B-to-A)/Papp (A-to-B) Interpretation Brain Penetration Potential Classification: • Papp (A-to-B)≥3.0 and ER<3.0: High • Papp (A-to-B)≥3.0 and 10>ER≥3.0: Moderate • Papp (A-to-B)≥3.0 and ER≥10, or Papp (A-to-B)<3.0 Low
Compound,Stability HLM % @ 30 min [1],RLM % inh. @ 500 nM [2],HLM % inh. @ 500 nM [3],inhibition at 0.5 µM (rCYP4F2),IC50 [4],"solubility at 2 h ([5]; OD620, read-out: Max Solub)",solubility at 2 h ([5]; read-out: Solubility_ug/mL),"Papp A→B at 120 min, 5 μM (MDR1 (P-gp))","Papp B→A at 120 min, 5 μM (MDR1 (P-gp))"
"c1ccc(OC2CCN(c3cn[nH]c3)CC2)cc1 [Compound 14, 4-Phenoxy-1-(1H-pyrazol-4-yl)piperidine]",97%,0.00%,53.00%,60%,0.22 µM,–,–,–,–
"COCc1ccc(C2CCN(c3cn[nH]c3)CC2)cc1 [Compound 26, 4-(4-(Methoxymethyl)phenyl)-1-(1H-pyrazol-4-yl)piperidine]",100%,27.80%,71.70%,81.7%,0.2 µM,366 µM,99.4 µg/mL,–,–
"O=C1CCCN1Cc1ccc(C2CCN(c3cn[nH]c3)CC2)cc1F [Compound 109, 1-(4-(1-(1H-Pyrazol-4-yl)piperidin-4-yl)-2-fluorobenzyl)pyrrolidin-2-one]",–,62.70%,90.30%,86%,–,> 600 µM,–,10.8 ×10⁻⁶ cm/s,77.5 ×10⁻⁶ cm/s
"Cc1ccc(C2CCN(c3ccn[nH]3)CC2)cc1 [Compound 23, 1-(1H-Pyrazol-5-yl)-4-(p-tolyl)piperidine]",61%,0.00%,67.40%,70.8%,0.11 µM,166 µM,40.1 µg/mL,–,–
"COc1cncc(C2CCN(c3ccn[nH]3)CC2)c1 [Compound 60, 3-(1-(1H-Pyrazol-5-yl)piperidin-4-yl)-5-methoxypyridine]",100%,0.00%,3.70%,38.4%,–,–,–,–,–
"CCS(=O)(=O)c1ccc(C2CCN(c3cn[nH]c3)CC2)cc1 [Compound 52, 4-(4-(Ethylsulfonyl)phenyl)-1-(1H-pyrazol-4-yl)piperidine]",100%,13.40%,84.10%,74.8%,0.08 µM,244 µM,78 µg/mL,–,–
"COCc1ccc(C2CCN(c3ccn[nH]3)CC2)cc1 [Compound 25, 4-(4-(Methoxymethyl)phenyl)-1-(1H-pyrazol-5-yl)piperidine]",100%,21.30%,56.40%,67.8%,0.28 µM,235 µM,63.9 µg/mL,–,–
"COc1ccc(C2CCN(c3cn[nH]c3)CC2)cc1Cl [Compound 64, 4-(3-Chloro-4-methoxyphenyl)-1-(1H-pyrazol-4-yl)piperidine]",–,49.00%,88%,72%,–,19.5 µM,–,46.4 ×10⁻⁶ cm/s,34.8 ×10⁻⁶ cm/s
"CC(Nc1ccc(C2CCN(c3cn[nH]c3)CC2)cc1)C(F)(F)F (stereo not shown) [Compound 104, 4-(1-(1H-Pyrazol-4-yl)piperidin-4-yl)-N-(1,1,1-trifluoropropan-2-yl)aniline]",–,36.00%,86.1%,78%,–,31 µM,–,50.4 ×10⁻⁶ cm/s,48.9 ×10⁻⁶ cm/s
"O=C1CCCN1c1ccc(C2CCN(c3ccn[nH]3)CC2)cc1 [Compound 101, 1-(4-(1-(1H-Pyrazol-5-yl)piperidin-4-yl)phenyl)pyrrolidin-2-one]",–,48.70%,79.00%,80%,–,158 µM,–,33.8 ×10⁻⁶ cm/s,46.7 ×10⁻⁶ cm/s
